Assay results: US20230183303A1, “Therapeutic Potential of Peptides from the "Netrin-Like" Domain of the FRZB Protein” (Université de Lorraine, priority 2020, published 2023)

Key:
MC3T3-E1 cells [1] = assay: qRT-PCR relative expression of genes of interest in MC3T3-E1 cells (osteogenic differentiation); assay type: cell-based, mouse
Text: (§1) Each time point was processed in three technical replicates. The medium was changed every two days.
(§2) Total RNA was isolated using the Nucleospin RNA II kit (Macherey-Nagel) and reverse-transcribed using the MMLV reverse transcriptase (Thermo Fisher Scientific) following the manufacturers' instructions. The iTaq SYBR green qPCR master mix (BioRad) was used to assess the mRNA expression of target genes of interest. Primer sequences can be provided upon request. The following PCR conditions were used: 1 minute at 95° C., 40 cycles of 15 sec of denaturation at 95° C., followed by 1 minute of annealing-elongation at 60° C. Melting curve analysis was performed to determine the amplification of the specific product. Results were expressed using the comparative threshold method and were normalized to housekeeping gene PPIA (Peptidylprolyl Isomerase A) mRNA level for ATDC5 cells and MACs, or normalized to housekeeping gene S29 (ribosomal protein S29) mRNA level for MC3T3-E1 cells. The Via7 real-time PCR system (Thermo Fisher Scientific) was used for qRT-PCR measurements.
Briefly, MC3T3-E1 cells were differentiated during 14 days as mentioned previously. […] In the same experiment, we also used MC3T3-E1 cells stably overexpressing the NTN domain. Treated cells and NTN overexpressing cells were compared to control cells (CTL).
RNA was isolated and qPCR was performed for ANKRD (YAP/TAZ target gene, indicator of the pathway activity) (FIG. 21).

[2] = tested on: 8×YAP response elements (8×GTIIC reporter); conditions: PEP16 at 30 ng/ml; 24 h
Experimental: (§3) Results were normalized by-cotransfecting each of the above plasmid with the tyrosine kinase-renilla luciferase plasmid (Promega). Transfections were carried out using the Dharmafect kb transfection reagent (Fisher Scientific). Briefly, reporter plasmids and transfection reagent were diluted in serum-free medium, and then the diluted Dharmafect kb was added to the plasmids for an incubation time of 10 minutes at room temperature. During that time, cells were rinsed with PBS and were placed in fresh maintenance medium. When incubation was over, the mixture of transfection reagent-plasmids was dispensed in each well. Stimulations (with Wnt3a and/or PEP16 and/or PEP16bis) were carried out the next day.

[3] = tested on: 7×TCF/LEF response elements (Super 8×TOPFlash reporter); assay: Promoter activation assay, Super 8×TOPFlash luciferase reporter in ATDC5 cells stimulated with Wnt3a; assay type: cell-based, mouse; conditions: peptide at 300 ng/ml; 10 or 100 ng/mL recombinant Wnt3a; 24 h
Experimental: as §3

MC3T3-E1 cells [4] = assay: Quantification of mineralization (Alizarin Red) in MC3T3-E1 cells; assay type: cell-based, mouse; conditions: PEP16 at 100 or 300 ng/mL; day 21; absorbance 405 nm
Experimental: as §1
Cells were washed with PBS and fixed with 95% ice-cold ethanol for 30 min at 4° C. for staining. After washing with distilled water, cells were stained with Alizarin Red staining (1% Alizarin Red S (Sigma)), washed three times with distilled water to remove unbound staining and air-dried. Quantification of the staining was performed by dissolving the mineral content in 800 μl of 10% acetic acid for 30 minutes. Then, the wells were scraped, the content of each well was harvested in a separate tube and vortexed for 30 seconds. Each tube was heated at 85° C. for 10 minutes, then put on ice for 5 minutes. Finally, tubes were centriguated at 13000 rpm for 15 minutes, the liquid phase was harvested and mixed with 100 μl of 10% ammonium hydroxide. Absorbance was measured at 405 nm with a spectrophotometer (Varioskan Flash, Thermo Fisher Scientific).
The mineralization level was evaluated by a biochemical assay as previously described after 21 days of differentiation culture. Results are representative of 3 experiments.

[5] = tested on: mouse articular chondrocytes; assay: qRT-PCR relative expression of genes of interest in mouse articular chondrocytes; assay type: cell-based
Experimental: Mouse articular chondrocyte (MACs) were isolated from femoral heads by enzymatic digestion of whole femoral head caps. Samples were washed three times in 1% AB/phosphate buffered saline (PBS) and incubated with 2 mg/ml pronase (Roche)/DMEM-F12 at 37° C. for 1 h at slow rotation 100 rpm followed by a 3 h incubation with 1.5 mg/ml collagenase B (Roche)/DMEM-F12 at 37° C. Cells were seeded at 1×10^6 cells/[…], and cultured for 7 to 14 days in growth medium DMEM-F12, containing 1% AB (Gibco), 10% FBS (Gibco) and 5% L-glutamine (Thermoscientific). Passage 1 cells were utilized for the experiments. The culture supernatants were then harvested in order to perform MMP13 enzymatic activity assay. The evaluation of the expression of genes of interest included articular chondrocyte markers (aggrecan, type 2 collagen (col2a1)), YAP/TAZ target genes (ankrd) and pro-catabolic enzyme involved in the pathophysiology of OA (mmp3).
as §2

CamKII pathway = assay: Western blot of CamKII pathway activation in MC3T3-E1 cells; assay type: cell-based, mouse; conditions: PEP16 at 300 or 1000 ng/mL; early osteogenesis stages
Text: as §1

[6] = PEP16 at 100 or 300 ng/mL, day 7, 14, 21, normalized with S29
[7] = PEP16 at 300 ng/mL and wnt3a at 100 ng/mL, 24 and 48 h

Question: “DRLGKKVKRWDMKLRH (PEP16) [peptide derived from the netrin-like domain of the FRZB protein]” was tested. Which “expression of ANKRD (YAP/TAZ target gene)” value (MC3T3-E1 cells [1]; PEP16 at 300 ng/ml or cells stably overexpressing the NTN domain, D1 and D14, vs control cells) did it give?
Answer: managed to do so

Question: What about the “relative expression level of osteocalcin” value (MC3T3-E1 cells [1]; [6]) of the same sequence?
Answer: favoured the induction of the expression

Question: What about the “relative expression level of osterix” value (MC3T3-E1 cells [1]; [6]) of the same sequence?
Answer: favoured the induction of the expression

Question: And the “activity of the Hippo/YAP/TAZ pathway in a luciferase-type reporter system (Firefly/renilla ratio)” value [2]?
Answer: significantly reduced the activity

Question: And the “activity of the canonical Wnt pathway in the Super TOPFlash luciferase reporter system (Firefly/renilla ratio)” value [3]?
Answer: significantly reduce the activity

Question: And the “mineralization quantification (mineral content in the extracellular matrix)” value (MC3T3-E1 cells [4])?
Answer: significantly increased the accumulation of mineral content

Question: What about the “expression of Ankrd, a target gene of the Hippo/YAP/TAZ pathway” value ([5]; 300 ng/mL, 12 h of stimulation) of the same sequence?
Answer: capable of reducing the expression

Question: What about the “expression of MMP3 induced by Wnt3a” value ([5]; 300 ng/mL, wnt3a at 100, 50, 30 ng/mL, 24 h of stimulation) of the same sequence?
Answer: counteract the inductive effects of Wnt3a

Question: And the “relative expression level of aggrecan (decrease induced by Wnt3a)” value [5, 7]?
Answer: had a tendancy to counteract

Question: And the “relative expression level of col2a1 (type 2 collagen; decrease induced by Wnt3a)” value [5, 7]?
Answer: had a tendancy to counteract

Question: And the “increase of NGF induced by Wnt3a” value ([5]; PEP16 with Wnt3a, data not shown)?
Answer: had a tendancy to counteract

Question: And the CamKII pathway activation (CamKII pathway)?
Answer: efficiently increased the activation
